Measurements from EP4796557A1, “POLYPEPTIDE, BIOACTIVE CONJUGATE, AND PREPARATION METHOD THEREFOR AND USE THEREOF” (priority 2023, dated 2025).
Numbered stars: 1 amine (or outer) side, 2 acyl side, 3 side chain; on linkers, the order of the positions; unused ones are H or OH. Square brackets hold non-standard residues; d marks the D form. Peptide text beside a SMILES is read from it. * marks the point of attachment. Exatecan = CC[C@@]1(O)C(=O)OCc2c1cc1n(c2=O)Cc2c-1nc1cc(F)c(C)c3c1c2[C@@H](N*)CC3; Hexanoyl(6-maleimido) = O=C1C=CC(=O)N1CCCCCC(=O)*; PABC = O=C(OCc1ccc(N[*:1])cc1)[*:2]; Cit = NC(=O)NCCC[C@H](N)C(=O)O

Columns and labels:
[1] = target: MMP9 (Homo sapiens, UniProt P14780); test: Enzymolysis assay of the linker-payload by MMP9 (LC-MS); format: biochemical; settings: linker-payload 100 µmol, activated MMP9 0.2 µg/mL, 37°C, 24 h
MMP9, sequence (P14780 107-707 limits assumed, species assumed): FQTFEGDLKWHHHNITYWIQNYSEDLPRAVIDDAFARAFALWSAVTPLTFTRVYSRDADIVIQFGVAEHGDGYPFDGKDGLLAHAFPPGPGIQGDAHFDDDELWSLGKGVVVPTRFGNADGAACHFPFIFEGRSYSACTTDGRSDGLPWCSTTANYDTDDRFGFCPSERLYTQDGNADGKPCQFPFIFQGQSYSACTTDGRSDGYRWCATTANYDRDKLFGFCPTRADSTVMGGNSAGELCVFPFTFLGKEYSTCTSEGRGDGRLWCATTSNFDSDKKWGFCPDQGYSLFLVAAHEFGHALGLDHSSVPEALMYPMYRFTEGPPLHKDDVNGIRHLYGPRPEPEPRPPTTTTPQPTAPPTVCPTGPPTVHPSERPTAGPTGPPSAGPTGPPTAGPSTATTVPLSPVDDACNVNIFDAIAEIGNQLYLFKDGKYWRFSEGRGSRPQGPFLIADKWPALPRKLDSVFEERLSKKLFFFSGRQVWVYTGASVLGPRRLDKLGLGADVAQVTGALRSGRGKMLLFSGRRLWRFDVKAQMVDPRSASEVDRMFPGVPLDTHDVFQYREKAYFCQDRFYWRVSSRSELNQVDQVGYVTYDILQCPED
Experimental: (§1) MMP9 having a final concentration of 200 µg/mL was mixed with 4 mM APMA at a ratio of 1:1 and placed in a 37°C water bath and incubated for 24 h to activate the MMP9 enzyme solution. Subsequently, the linker-payload having a final concentration of 100 µmol was incubated with the activated MMP9 solution having a final concentration of 0.2 µg/mL in a 37°C water bath for 24 h. After the reaction was complete, LC-MS analysis was performed.

[2] = target: T1, MMP2 (Homo sapiens, UniProt P08253); test: Enzymolysis assay of the linker-payload by MMP2 (LC-MS); format: biochemical; settings: linker-payload 100 µmol, activated MMP2 1 µg/mL, 37°C, 24 h
T1 sequence (P08253 110-660): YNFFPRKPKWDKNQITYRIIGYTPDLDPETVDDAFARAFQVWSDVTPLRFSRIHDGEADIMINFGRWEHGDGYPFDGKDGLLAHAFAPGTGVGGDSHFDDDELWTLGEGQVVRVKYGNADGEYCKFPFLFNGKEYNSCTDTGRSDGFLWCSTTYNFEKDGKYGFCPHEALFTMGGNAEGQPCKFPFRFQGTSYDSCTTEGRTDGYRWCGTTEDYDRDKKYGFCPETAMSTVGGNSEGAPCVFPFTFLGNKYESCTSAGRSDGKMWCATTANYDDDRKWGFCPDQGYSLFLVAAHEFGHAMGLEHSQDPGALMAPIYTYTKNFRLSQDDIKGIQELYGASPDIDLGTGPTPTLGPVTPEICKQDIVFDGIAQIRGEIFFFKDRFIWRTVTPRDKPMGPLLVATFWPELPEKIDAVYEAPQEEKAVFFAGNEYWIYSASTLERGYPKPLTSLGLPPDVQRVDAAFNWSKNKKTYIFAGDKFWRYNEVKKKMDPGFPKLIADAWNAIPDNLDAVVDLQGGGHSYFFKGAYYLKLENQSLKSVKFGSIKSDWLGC
Experimental: as §1, with “MMP2” for “MMP9”, “1” for “0.2”

[3] = background statement; cited from earlier work

Compound | MMP9 enzymolysis efficiency (%) [1] | MMP2 enzymolysis efficiency (%) [2] | half-life in plasma [3]
CC[C@@]1(O)C(=O)OCc2c1cc1n(c2=O)Cc2c-1nc1cc(F)c(C)c3c1c2[C@@H](NC(=O)OCc1ccc(NC(=O)[C@H](CCCNC(N)=O)NC(=O)[C@@H](NC(=O)[C@H](CC(C)C)NC(=O)[C@H](CO)NC(=O)[C@H](C)NC(=O)[C@@H]2CCCN2C(=O)CCCCCN2C(=O)C=CC2=O)C(C)C)cc1)CC3 [Compound L065-P005, MC-PASLVCit-PAB-DX8951] ({Hexanoyl(6-maleimido)}-PASLV[Cit][PABC]-Exatecan) | 27.13% | 32.73% | –
Trodelvy | – | – | less than 24 hours
CC[C@@]1(O)C(=O)OCc2c1cc1n(c2=O)Cc2c-1nc1cc(F)c(C)c3c1c2[C@@H](NC(=O)OCc1ccc(NC(=O)[C@H](CCCNC(N)=O)NC(=O)[C@@H](NC(=O)[C@H](CC(C)C)NC(=O)[C@H](CC(N)=O)NC(=O)[C@H](CCCNC(N)=O)NC(=O)[C@@H]2CCCN2C(=O)CCCCCN2C(=O)C=CC2=O)C(C)C)cc1)CC3 [Compound L064-P005, MC-PCitNLVCit-PAB-DX8951] ({Hexanoyl(6-maleimido)}-P[Cit]NLV[Cit][PABC]-Exatecan) | 52.70% | 42.89% | –
